# Measurements reported in paper PMC4303209, “A novel phosphatidylinositol 3-kinase (PI3K) inhibitor directs a potent FOXO-dependent, p53-independent cell cycle arrest phenotype characterized by the differential induction of a subset of FOXO-regulated genes” (Breast Cancer Research : BCR, 2014).
# System: MCF-7 breast cancer cells
# Assay: Microarray gene expression analysis (Agilent whole human genome 4 x 44K; compound vs DMSO, LIMMA log2 fold change)
# Type: cell-based
structure (smiles),measurement,setting,value
Oc1cccc(-c2nc(N3CCOCC3)c3oc4ncccc4c3n2)c1 [PI-103],log2FC LATS1,"gene LATS1 (Gene 9113), cell cycle genes",0.0843
same,log2FC,"gene LATS2 (Gene 26524), cell cycle genes",0.38
same,LCMT1 log2FC,"gene LCMT1 (51451), apoptosis genes",0.003
same,LCN2 log2FC,"gene LCN2 (3934), apoptosis genes",0.063
same,log2FC,"gene LEMD3 (Gene 23592), cell cycle genes",0.29
same,LGALS1 log2FC,"gene LGALS1 (3956), apoptosis genes",0.053
same,LGALS12 log2FC,"gene LGALS12 (85329), apoptosis genes",0.050
same,LGALS14 log2FC,"gene LGALS14 (56891), apoptosis genes",0.104
same,log2FC,"gene LMNA (Gene 4000), cell cycle genes",-0.0134
same,LRP1 log2FC,"gene LRP1 (4035), apoptosis genes",0.043
same,log2FC,"gene LRP6 (Gene 4040), cell cycle genes",-0.12
same,log2FC,"gene LSM11 (Gene 134353), cell cycle genes",0.09
same,LTA log2FC,"gene LTA (4049), apoptosis genes",0.136
same,LTF log2FC,"gene LTF (4057), apoptosis genes",0.014
same,MAD2L1 log2FC,"gene MAD2L1 (4085), apoptosis genes",-0.145
same,MAEL log2FC,"gene MAEL (84944), apoptosis genes",-0.172
same,log2FC MAEL,"gene MAEL (Gene 84944), cell cycle genes",-0.17
same,MAGED1 log2FC,"gene MAGED1 (9500), apoptosis genes",-0.047
same,MAGEH1 log2FC,"gene MAGEH1 (28986), apoptosis genes",0.025
same,MAP2K5 log2FC,"gene MAP2K5 (5607), apoptosis genes",-0.018
same,MAP2K7 log2FC,"gene MAP2K7 (5609), apoptosis genes",0.032
same,log2FC,"gene MAP3K8 (Gene 1326), cell cycle genes",0.0265
same,log2FC,"gene MAP4 (Gene 4134), cell cycle genes",-0.23
same,MAPK1 log2FC,"gene MAPK1 (5594), apoptosis genes",0.017
same,log2FC,"gene MAPK4 (Gene 5596), cell cycle genes",-0.08
same,log2FC,"gene MAPK6 (Gene 5597), cell cycle genes",0.12
same,MAPK8 log2FC,"gene MAPK8 (5599), apoptosis genes",-0.015
same,MAPK9 log2FC,"gene MAPK9 (5601), apoptosis genes",-0.052
same,log2FC,"gene MAPK12 (Gene 6300), cell cycle genes",-0.18
same,MAPT log2FC,"gene MAPT (4137), apoptosis genes",0.031
same,log2FC MCM4,"gene MCM4 (Gene 4173), cell cycle genes",-0.12
same,MDM4 log2FC,"gene MDM4 (4194), apoptosis genes",-0.144
same,log2FC,"gene MED25 (Gene 81857), cell cycle genes",-0.19
same,MKL1 log2FC,"gene MKL1 (57591), apoptosis genes",0.300
same,MKNK1 log2FC,"gene MKNK1 (8569), apoptosis genes",0.102
same,MNDA log2FC,"gene MNDA (4332), apoptosis genes",0.077
same,MSX2 log2FC,"gene MSX2 (4488), apoptosis genes",0.052
same,MT3 log2FC,"gene MT3 (4504), apoptosis genes",-0.313
same,log2FC,"gene MYOG (Gene 4656), cell cycle genes",-0.13
same,NACA log2FC,"gene NACA (4666), apoptosis genes",0.038
same,log2FC NANOG,"gene NANOG (Gene 79923), cell cycle genes",-0.07
same,log2FC,"gene NASP (Gene 4678), cell cycle genes",0.16
same,NCF1 log2FC,"gene NCF1 (653361), apoptosis genes",0.093
same,NCF2 log2FC,"gene NCF2 (4688), apoptosis genes",-0.014
same,log2FC,"gene NCOR1 (Gene 9611), cell cycle genes",0.25
same,NDUFS3 log2FC,"gene NDUFS3 (4722), apoptosis genes",0.064
same,NEURL log2FC,"gene NEURL (9148), apoptosis genes",0.053
same,NEUROD1 log2FC,"gene NEUROD1 (4760), apoptosis genes",0.039
same,log2FC NEUROG1,"gene NEUROG1 (Gene 4762), cell cycle genes",-0.44
same,NLE1 log2FC,"gene NLE1 (54475), apoptosis genes",0.195
same,NME6 log2FC,"gene NME6 (10201), apoptosis genes",-0.015
same,log2FC NME6,"gene NME6 (Gene 10201), cell cycle genes",-0.0153
same,NOS1AP log2FC,"gene NOS1AP (9722), apoptosis genes",0.021
same,NOTCH1 log2FC,"gene NOTCH1 (4851), apoptosis genes",-0.008
same,NOX5 log2FC,"gene NOX5 (79400), apoptosis genes",0.00161
same,log2FC NOX5,"gene NOX5 (Gene 79400), cell cycle genes",0.00161
same,NTRK1 log2FC,"gene NTRK1 (4914), apoptosis genes",0.391
same,log2FC,"gene NUMA1 (Gene 4926), cell cycle genes",-0.09
same,log2FC,"gene NUP153 (Gene 9972), cell cycle genes",-0.34
same,log2FC NUP155,"gene NUP155 (Gene 9631), cell cycle genes",-0.14
same,log2FC,"gene NUP188 (Gene 23511), cell cycle genes",-0.16
same,NUPR1 log2FC,"gene NUPR1 (26471), apoptosis genes",0.072
same,OSR1 log2FC,"gene OSR1 (130497), apoptosis genes",-0.027
same,P4HB log2FC,"gene P4HB (5034), apoptosis genes",0.036
same,log2FC,"gene PA2G4 (Gene 5036), cell cycle genes",-0.51
same,PAFAH2 log2FC,"gene PAFAH2 (5051), apoptosis genes",-0.020
same,PAK6 log2FC,"gene PAK6 (56924), apoptosis genes",0.142
same,log2FC PAK6,"gene PAK6 (Gene 56924), cell cycle genes",0.14
same,log2FC,"gene PAPD5 (Gene 64282), cell cycle genes",0.31
same,PARK7 log2FC,"gene PARK7 (11315), apoptosis genes",0.018
same,PAX2 log2FC,"gene PAX2 (5076), apoptosis genes",0.009
same,log2FC PCNA,"gene PCNA (Gene 5111), cell cycle genes",-0.28
same,PCSK9 log2FC,"gene PCSK9 (255738), apoptosis genes",-0.221
same,log2FC PDCD2L,"gene PDCD2L (Gene 84306), cell cycle genes",-0.12
same,PDCD5 log2FC,"gene PDCD5 (9141), apoptosis genes",-0.049
same,PDCL3 log2FC,"gene PDCL3 (79031), apoptosis genes",-0.222
same,PDE1B log2FC,"gene PDE1B (5153), apoptosis genes",0.019
same,PDE3A log2FC,"gene PDE3A (5139), apoptosis genes",0.00129
same,log2FC PDE3A,"gene PDE3A (Gene 5139), cell cycle genes",0.00129
